Holding throughout (assay): DTP human tumour cell line panel, 48 h
In assay [1] the test system is HOP-62.
For assay [2], the system named is HCC 2998.
Assay [3] has as its system SF-295.
For assay [4], the system named is IGROV-1.
In assay [5] the test system is PC-3.
Assay [6] deals with SK-MEL-2.
In assay [7] the test system is SK-MEL-5.
Assay [8] deals with HT-29.
Assay [9] has as its system COLO 205.
In assay [10] the test system is RXF 393.
For assay [11], the system named is RPMI-8226.
The test system of assay [12] is A498.
Assay [13] has as its system NCI-H23.
In assay [14] the test system is EKVX.
The test system of assay [15] is HOP-92.
Assay [16] concerns NCI-H522.
Assay [17] concerns MOLT-4.
Assay [18] has as its system MDA-MB-231.
Assay [19] deals with KM12.

Structures are written as SMILES.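 96-well plates; 48 h exposure; 5 concentrations. Endpoints by linear interpolation between flanking doses. Not reached: highest tested concentration assigned. GI50 = concentration required for 50% inhibition of growth.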 Calls of active or inactive are those of the source. Cut-off read from the data, not from the text of the source: active = GI50 up to about 1.1 µM and inactive = higher. Some results are limits rather than exact numbers.

For orientation: GI50 means the concentration that inhibits growth by half. Turning to `O=C(/C=C/c1ccccc1)NNC(=O)c1c(Cl)c(Cl)c(Cl)c(Cl)c1-c1nc2ccccc2[nH]1`, the concentration for 50% growth inhibition (GI50) was 0.0442 µM (active) in assay [1]; 21.7 µM (inactive) in assay [2]; 0.0472 µM (active) in [3]; 6.49 µM (inactive) in [4]; 32.5 µM (inactive) in assay [5]; 39.4 µM (inactive) in [6]. For the same molecule, the GI50 in assay [7] was 22 µM (inactive); in assay [8], 32.8 µM (inactive); in assay [9] it was 18 µM (inactive); in assay [10], 18.8 µM (inactive); in assay [11], 26.9 µM (inactive); in assay [12], 29.6 µM (inactive). The GI50 is 23.2 µM (inactive) in [13]; 17.6 µM (inactive) in assay [14]; 18.7 µM (inactive) in [15]; 24.6 µM (inactive) in assay [16]; 32.4 µM (inactive) in [17].

Take `O=C(Nc1ccc(S(=O)(=O)Nc2ncccn2)cc1)c1c2ccccc2nc2ccccc12`: the GI50 in assay [1], in assay [2], in assay [3], in assay [4], in [5] and in assay [6] was > 100 µM (inactive) throughout. The GI50 in [7], in assay [8], in [9], in assay [11], in [12] and in assay [13] was > 100 µM (inactive) in each case. Further, the GI50 in assay [14], in assay [15], in [18], in assay [19], in assay [16] and in assay [17] was > 100 µM (inactive) throughout.

As for `Cc1ccccc1C1=[N+]([O-])c2ccc(Cl)cc2C1=O`, the GI50 was 20 µM (inactive) in assay [1]; 13.6 µM (inactive) in [2]; 14.6 µM (inactive) in [3]; 15.3 µM (inactive) in assay [4]; 14.1 µM (inactive) in assay [6]; 13.8 µM (inactive) in [7]. The GI50 in assay [8] was 5.01 µM (inactive); in assay [9], 7.76 µM (inactive); in assay [10], 20 µM (inactive); in assay [11], 3.31 µM (inactive); in assay [12] it was 20.2 µM (inactive); in [13], 17.7 µM (inactive). Besides, the GI50 in [14] was 12.5 µM (inactive); in assay [15] it was 14.8 µM (inactive); in assay [19], 14.1 µM (inactive); in [16] it was 11.5 µM (inactive); in assay [17], 3.6 µM (inactive).

In the case of `CC1(C)CC(=O)C(=CNc2nc(-c3ccccc3)cs2)C(=O)C1`, the GI50 in assay [1] was 34.2 µM (inactive); in assay [2], 31.2 µM (inactive); in [3], 57.9 µM (inactive); in assay [4] it was 26.6 µM (inactive); in assay [5] it was 38.6 µM (inactive); in [6], 34.7 µM (inactive). The GI50 in assay [7] is 38.1 µM (inactive); in assay [8] it was 33.6 µM (inactive); in [9] it was 33 µM (inactive); in assay [13], 32.4 µM (inactive); in [14], 26.2 µM (inactive); in assay [15] it was 71 µM (inactive). For the same molecule, the GI50 in assay [18] is 34.8 µM (inactive); in [19], 32.1 µM (inactive); in assay [17] it was 32.4 µM (inactive).

`CCOc1ccc(N/C(=C(/C(Cl)=C(/Cl)Nc2ccccc2)[N+](=O)[O-])n2nnc3ccccc32)cc1`: the GI50 was 24.5 µM (inactive) in assay [1]; 37.7 µM (inactive) in [2]; 51.3 µM (inactive) in assay [3]; 23.2 µM (inactive) in assay [5]; 26.3 µM (inactive) in assay [6]; 17.7 µM (inactive) in assay [7]. Moreover, the GI50 is 20.7 µM (inactive) in assay [9]; 50.7 µM (inactive) in assay [11]; > 100 µM (inactive) in [12]; 13.7 µM (inactive) in assay [13]; 28.8 µM (inactive) in assay [14]; 16 µM (inactive) in [15]. Moreover, the GI50 is 24.5 µM (inactive) in [18], 32.7 µM (inactive) in [19], 14 µM (inactive) in assay [16] and 14.8 µM (inactive) in [17].

For the molecule `COc1cccc(-c2nc(-c3cnccn3)n(Cc3ccccc3)n2)c1`, the GI50 was 44.4 µM (inactive) in assay [1]; > 100 µM (inactive) in [2]; 54.3 µM (inactive) in assay [3]; 88.7 µM (inactive) in [4]; > 100 µM (inactive) in [5]; 89.3 µM (inactive) in [7]. For the same molecule, the GI50 was > 100 µM (inactive) in assay [8]; > 100 µM (inactive) in assay [9]; 25.4 µM (inactive) in [10]; > 100 µM (inactive) in assay [11]; > 100 µM (inactive) in assay [13]; > 100 µM (inactive) in assay [14]. For the same molecule, the GI50 in [15] was 26.5 µM (inactive); in [18] it was > 100 µM (inactive); in assay [19] it was > 100 µM (inactive); in assay [16], 52.1 µM (inactive); in assay [17] it was > 100 µM (inactive).

`COc1cccc2c1C(=O)c1c(O)c3c(c(O)c1C2=O)CC(O)(C(C)=O)CC3OC1CC([N+](C)(C)C)C(O)C(C)O1` (centres undefined): the GI50 in assay [1] was > 100 µM (inactive); in assay [2] it was > 100 µM (inactive); in [3], > 100 µM (inactive); in [4], 42.1 µM (inactive); in assay [6], > 100 µM (inactive); in assay [7], > 100 µM (inactive). Moreover, the GI50 was 94.2 µM (inactive) in [8]; 48.1 µM (inactive) in [9]; > 100 µM (inactive) in [10]; 22.5 µM (inactive) in [11]; > 100 µM (inactive) in assay [12]; 72.9 µM (inactive) in [13]. The GI50 in [14] was > 100 µM (inactive); in [15], > 100 µM (inactive); in assay [19], > 100 µM (inactive); in [16], 31.3 µM (inactive); in [17], 12.4 µM (inactive).

Turning to `C=CCCC1(O)C(O)C(CO)O[C@H](O[C@@]2(CO)OC(CO)C(O)C2O)C1O` (some centres undefined), the GI50 in assay [1] was > 100 µM (inactive); in assay [3], > 100 µM (inactive); in [4], > 100 µM (inactive); in assay [5] it was > 100 µM (inactive); in [6] it was > 10 µM (inactive); in [7], > 100 µM (inactive). Also, the GI50 in assay [8], in assay [9], in [11], in [13], in assay [14] and in assay [15] was > 100 µM (inactive) in each case. The GI50 in assay [18], in assay [19], in assay [16] and in assay [17] was > 100 µM (inactive) each time.

`COCCOCN(C(=O)C1=CCC2(CC1)OCCO2)c1ccccc1I`: the GI50 in assay [1], in [2], in assay [3], in assay [5], in [6] and in assay [7] was > 50 µM (inactive) each time. Moreover, the GI50 is > 50 µM (inactive) in assay [8]; > 50 µM (inactive) in [9]; > 50 µM (inactive) in assay [11]; > 50 µM (inactive) in assay [12]; > 50 µM (inactive) in [13]; 29.2 µM (inactive) in [14]. Further, the GI50 in [15], in assay [18], in assay [19] and in assay [17] was > 50 µM (inactive) in each case.

As for `CCCN(CCCCC(NC(C)=O)C(=O)NCc1ccccc1)C(=O)N(C)N=O` (centres undefined), the GI50 in [1], in assay [2], in [3], in [4], in assay [6] and in assay [7] was > 100 µM (inactive) in each case. Also, the GI50 in assay [8], in assay [9], in assay [10], in assay [11], in assay [12] and in assay [13] was > 100 µM (inactive) throughout. Also, the GI50 in [14] was > 100 µM (inactive); in [15], > 100 µM (inactive); in assay [19], > 100 µM (inactive); in [16], > 100 µM (inactive); in assay [17], 92 µM (inactive).

As to `Nc1nc(CCc2n[nH]c(N)n2)n[nH]1`, the GI50 in assay [1], in [2], in [3], in assay [4], in assay [6] and in [7] was > 100 µM (inactive) each time. Further, the GI50 in assay [8], in assay [9], in [10], in assay [11], in [12] and in assay [13] was > 100 µM (inactive) throughout. For the same molecule, the GI50 in [14], in assay [15], in assay [19], in assay [16] and in assay [17] was > 100 µM (inactive) in each case.

In the case of `OC1(c2ccccc2)CCCCCCCCC(O)(c2ccccc2)CCCCCCCC1` (centres undefined), the GI50 in [1], in assay [2], in assay [3], in assay [4], in assay [5] and in assay [6] was > 100 µM (inactive) in each case. The GI50 in assay [7], in [8], in assay [9], in assay [10], in assay [12] and in [13] was > 100 µM (inactive) in each case. Also, the GI50 in assay [14], in assay [15], in assay [19] and in assay [16] was > 100 µM (inactive) throughout.

The record behind these values is ChEMBL document CHEMBL1201862, “PubChem BioAssay data set” (2004).
